This note sets out measurements from patent US11980616B2, “Treating liver disease by selectively eliminating senescent cells” (Buck Institute for Research on Aging, priority 2014, dated 2024).

Data set [1] has as its system non-senescent aortic endothelial (Non Sen Endo Aort) cells. Nature of the data set: Cell count toxicity assay, non-senescent aortic endothelial cells. The format is cell-based. To be noted: 0, 2.5, 10 μM, 11 days. The protocol: Non-senescent aortic endothelial (Endo Aort) cells and pre-adipocytes (Pread) were also treated with varying concentrations (0, 2.5 μM, and 10 μM) of Nutlin-3a for a period of 11 days to assess Nutlin-3a toxicity, as described above. Cell counts were taken at the start at Day 0 (NS start) and at the end of Nutlin-3a treatment (NS 0). The difference between counts of cells not treated with Nutlin-3a on day 11 (NS 0) and cell counts from NS start reflects the cell growth over the indicated time period. […] Decrease in apparent survival between NS 0 and NS 2.5 and between NS 0 and NS 10 reflects a decrease in cell growth.

The subject of data set [2] is doxorubicin-induced senescent cells in p16-3MR mice. Nature of the data set: Removal of doxorubicin-induced senescent cells in p16-3MR transgenic mice. The format is in vivo, mouse. The protocol:
The capability of Nutlin-3a to remove senescent cells in vivo was determined in transgenic p16-3MR mice (see, e.g., International Application Publication No. WO2013/090645). The transgenic mouse comprises a p16^Ink4a promoter operatively linked to a trimodal fusion protein for detecting senescent cells and for selective clearance of senescent cells in these transgenic mice, which is illustrated in FIG. 7. […] 3MR (tri-modality reporter) is a fusion protein containing functional domains of a synthetic Renilla luciferase (LUC), monomeric red fluorescence protein (mRFP), and truncated herpes simplex virus (HSV)-1 thymidine kinase (tTK), which allows killing by ganciclovir (GCV) (see, e.g., Ray et al., Cancer Res. 64:1323-30 (2004)). The 3MR cDNA was inserted in frame with p16 in exon 2, creating a fusion protein containing the first 62 amino acids of p16, but not a full-length wild-type p16 protein. […] The p16^Ink4a gene promoter (approximately 100 kilobase pairs) was introduced upstream of a nucleotide sequence encoding a trimodal reporter fusion protein. Alternatively, a truncated p16^Ink4a promoter may be used (see, e.g., Baker et al., Nature, supra; International Application Publication No. WO2012/177927; Wang et al., supra). Thus, the expression of 3MR is driven by the p16^Ink4a promoter in senescent cells only. The detectable markers, LUC and mRFP permitted detection of senescent cells by bioluminescence and fluorescence, respectively. […] Transgenic founder animals, which have a C57B16 background, were established and bred using known procedures for introducing transgenes into animals (see, e.g., Baker et al., Nature 479:232-36 (2011)).
Female C57/BL6 p16-3MR mice were randomized into doxorubicin+Nutlin-3a treated or doxorubicin only treated groups (see FIG. 6). Senescence was induced by intraperitoneal administration of doxorubicin at 10 mg/kg to the mice ten days prior to administration of Nutlin-3a (Day −10). Nutlin-3a (25 mg/kg) was administered intraperitoneally daily from day 10 to day 24 post-doxorubicin treatment (Group=9 mice). Control mice (doxorubicin treated) were injected with equal volumes of PBS (Group=3 mice). Luminescence imaging (Xenogen Imaging system) was performed at Day 0 (i.e., 10 days post-doxorubicin treatment) as a baseline for each mouse (100% intensity).
Luminescence imaging of the mice was performed on day 7, 14, 21, 28, and 35 following the initiation of Nutlin-3a treatment. Reduction of luminescence (L) was calculated as: L=(Imaging post-Nutlin-3a treatment)/(Baseline Imaging)[…]. If L is greater than or equal to 100%, the number of senescent cells was not reduced. If L is less than 100%, then the number of senescent cells was reduced. Every mouse was calculated independently, and background was subtracted from each sample.
Experiments were performed to determine the effect of Nutlin-3a treatment on expression of genes associated with senescence. Groups of female C57/BL6 p16-3MR were treated as described above. Three weeks after the end of Nutlin-3a treatment (day 35), the doxorubicin treated mice (control) (N=3) and doxorubicin+Nutlin-3a-treated mice (N=6) were sacrificed. […]
RNA was analyzed for mRNA levels of endogenous senescence markers (p21, p16^INK4a (p16), and p53) and SASP factors (mmp-3 and IL-6) relative to actin mRNA (control for cDNA quantity) using the Roche Universal Probe Library for real-time PCR assay. […]

Data set [3] deals with p16-3MR mice treated with paclitaxel. Nature of the data set: Voluntary exercise (wheel counts) after paclitaxel in p16-3MR mice. The format is in vivo, mouse. The note with it: ABT-263 100 mg/kg i.p. daily 7 days; ganciclovir 25 mg/kg i.p. daily 3 days. Here is the method:
The capability of a senolytic agent, such as ABT-263, to reduce chemotherapy related side effects, such as fatigue, was examined in p16-3MR transgenic mice. In addition to doxorubicin, paclitaxel also induces cellular senescence when administered to animals. See Example 2 for a description of the p16-3MR transgenic mouse model.
In this experiment, paclitaxel was administered to groups of p16-3mr mice (n=4) three times, every two days. Two days after the third dose of paclitaxel, ganciclovir was administered daily for three days (days 1, 2, and 3) intraperitoneally at 25 mg/kg. ABT-263 (100 mg/kg) was administered intraperitoneally daily for seven days after paclitaxel administration. Two days after the last dose of ABT-263, all groups of animals were housed in metabolic cages (promethion, sable systems international, Las Vegas, NV) to monitor voluntary exercise as determined by wheel counts. Data were collected and analyzed two days later. Clearance of senescent cells by ABT-263 and ganciclovir restored approximately 70% of wheel count reduction caused by chemotherapy treatment.

For `COc1ccc(C2=N[C@@H](c3ccc(Cl)cc3)[C@@H](c3ccc(Cl)cc3)N2C(=O)N2CCNC(=O)C2)c(OC(C)C)c1` [Nutlin-3a], in data set [1], the “Proliferation (percent growth)” value is “reduces proliferation” and the “Toxicity (cell number vs starting level)” value is “non-toxic”. For the same compound, in data set [2] (25 mg/kg i.p. daily day 10 to 24 post-doxorubicin), the “Luminescence associated with doxorubicin-induced senescence (% of baseline)” value is “reduced luminescence”. Besides, the Decrease in luminescence entry in data set [2] (25 mg/kg i.p. daily, at day 14, day 28 and day 35) is “statistically significant decrease”. The “γH2AX positive cells (DNA damage) in lung sections” value in data set [2] (day 35, vs doxorubicin alone) is on record as “reduced the number of cells with DNA damage”. In addition, the “mRNA of SASP factors (mmp-3, IL-6) and senescence markers (p21, p16, p53)” value in data set [2] (skin and fat, day 35, vs doxorubicin alone) is on record as “reduced expression”. Moreover, the “Senescence-associated β-gal intensity in fat biopsies” value in data set [2] (three weeks after treatment, vs doxorubicin alone) is “reduced senescence-associated β-gal intensity”.

For `Nc1nc(O)c2ncn(COC(CO)CO)c2n1` [ganciclovir], the “Restoration of wheel count reduction caused by chemotherapy” value in data set [3] is “approximately 70%”.
